ChEMBL document CHEMBL1151512, “Design and synthesis of new potential photoaffinity labels for mammalian squalene epoxidase” (Bioorg Med Chem Lett, 1997)

Each compound was assayed on HepG2 (assay: In vitro cholesterol biosynthesis inhibition in human HepG2 by measuring the extend of cholesterol radiolabeling after incubation with [14C]mevalonate.).
Format: functional, cell-based

SMILES	IC50 [nM]
CCN(CC#Cc1ccc(N=[N+]=[N-])cc1)Cc1cccc(OCc2cc(-c3ccsc3)cs2)c1	2100
CCN(CC#Cc1ccccc1)Cc1cccc(OCc2cc(-c3ccsc3)cs2)c1	70
CCN(CC#Cc1cccc(N=[N+]=[N-])c1)Cc1cccc(OCc2cc(-c3ccsc3)cs2)c1	540
CCN(C/C=C/C#CC(C)(C)C)Cc1cccc(OC[Si](C)(C)c2ccc(N=[N+]=[N-])cc2)c1	1200
CCN(C/C=C/C#CC(C)(C)C)Cc1cccc(OC[Si](C)(C)c2ccc(C#N)cc2)c1	60
CCN(CC#Cc1ccccc1N=[N+]=[N-])Cc1cccc(OCc2cc(-c3ccsc3)cs2)c1	> 100000
